Patent US11820726B2, “Motuporamine derivatives as antimicrobial agents and antibiotic enhancers against resistant gram-negative bacteria” (University of Central Florida Research Foundation, Inc., priority 2017, dated 2023)

How the values were obtained:
[1] = test system: bacterial membrane; settings: cited from earlier work
[2] = test system: E. aerogenes EA289, P. aeruginosa PAO1, and K. pneumoniae KPC2-ST258; experiment: Determination of antibiotic MIC in the presence of compounds (restoring enhancer concentration); assay type: cell-based
Method: Determination of antibiotic MIC in the presence of compounds: Briefly, restoring enhancer concentrations were determined with an inoculum of 5×10^5 colony forming unit (CFU) in MH broth (200 μL) containing twofold serial dilutions of each derivative and antibiotic (chloramphenicol, doxycycline, cefepime, or erythromycin; 2 μg/mL). […] Measurements were repeated in triplicate.

[3] = test system: S. aureus RN4220, P. aeruginosa PAO1 and E. coli ANSI; settings: cited from earlier work; for antibacterial activity: unsubstituted diamines; for activity against S. aureus RN4220, P. aeruginosa PAO1 and E. coli ANSI: higher polyamines
[4] = test system: P. aeruginosa PAO1; experiment: MIC of doxycycline against P. aeruginosa PAO1; assay type: cell-based; settings: Pseudomonas aeruginosa
Method: Antibiotics: All the antibiotics were purchased from Sigma-Aldrich except for doxycycline which was purchased from TCI Europe (Zwijndrecht, Belgium). All antibiotics were dissolved in water. The susceptibility of bacterial strains to antibiotics and compounds was determined in microplates by the standard broth dilution method, according to the recommendations of the Comité de l'AntibioGramme de la Société Française de Microbiologie (CA-SFM).^[36] Briefly, MICs were determined with an inoculum of 10^5 CFU in of MH broth (200 μL) containing twofold serial dilutions of each drug. […] Measurements were repeated in triplicate.

[5] = test system: Staphylococcus aureus ATCC25923; experiment: ATP release (membrane disruption) in S. aureus; assay type: cell-based; settings: ATP release for 1 min, 100 μg/mL
Method: Measurement of ATP efflux: Squalamine were prepared in doubly distilled water at different concentrations. A suspension of growing S. aureus or E. aerogenes (EA289) in MH broth was incubated at 37° C. The suspension (90 μL) was added to squalamine solution (10 μL, synthesized in lab according to reported procedures), and the mixture was vortexed for Is. Luciferin-luciferase reagent (Yelen, France; 50 μL) was immediately added, and luminescence was quantified with an Infinite M200 microplate reader (Tecan) for 5 s. ATP concentration was quantified by addition of a known amount of ATP (1 μM).

[6] = test system: E. aerogenes EA289; experiment: Nitrocefin hydrolysis assay (outer membrane permeabilization); assay type: cell-based, Enterobacter aerogenes; settings: 5b even at 3.9 μM, compared to spermine-treated or untreated control
Method: Nitrocefin hydrolysis assay: Outer membrane permeabilization was measured by using nitrocefin, a chromogenic substrate of periplasmic β-lactamase. MH broth (10 mL) was inoculated with of an overnight culture (0.1 mL) of EA289 and grown at 37° C. to OD600=0.5. The remaining steps were performed at room temperature. Cells were recovered by centrifugation (3600 G, 20 min) and washed once with potassium phosphate buffer (PPB) (20 mM, pH 7.2) containing MgCl2 (1 mM). After another centrifugation, the pellet was resuspended in PPB (100 μL) and adjusted to OD600=0.5. Then, either Polymyxin B (positive control; Sigma-Aldrich) or 5b (50 μL) was added to the cell suspension (100 gm/L) to final concentrations of 0.98-500 μM “2.5, 15, 62.5, and 125 μM”. Nitrocefin (50 μL, 50 μg/mL; Oxoid) was added, and its hydrolysis was monitored spectrophotometrically by measuring the increase in absorbance at 490 nm. Assays were performed in 96-well plates with an M200 Pro spectrophotometer (Tecan).

## S=C(NCCCNCCCCCNCCCNC(=S)NCC(c1ccccc1)c1ccccc1)NCC(c1ccccc1)c1ccccc1 [1,13-bis (((2,2-diphenyl)-1-ethyl)thioureido)-4,10-diazatridecane]
[1]
  cytoplasmic membrane depolarization: depolarize the cytoplasmic membrane

## Cl.Cl.NCCCCNCc1c2ccccc2cc2ccccc12 [7b]
[2]; antibiotic 2 μg/mL, PAO1, EA289 and KPC2-ST258
  synergy with chloramphenicol and erythromycin: weak or no activity
[2]; doxycycline 2 μg/mL, derivative even at 40 μM
  restoration of doxycycline activity: no improvement

## NCCCCCN [cadaverine]
[1]
  membrane rupture: did not cause membrane rupture
[3]
  antibacterial activity: no antibacterial activity

## C[C@H]1c2cccc(O)c2C(=O)C2=C(O)[C@]3(O)C(=O)C(C(N)=O)=C(O)[C@@H](N(C)C)[C@@H]3[C@@H](O)[C@@H]21 [doxycycline]
[4]
  MIC: 16 µg/mL

## NCCCCN [putrescine]
[1]
  membrane rupture: did not cause membrane rupture
[3]
  antibacterial activity: no antibacterial activity

## NCCCCNCCCN [spermidine]
[3]
  activity against S. aureus RN4220, P. aeruginosa PAO1 and E. coli ANSI: inactive

## NCCCNCCCCNCCCN [spermine]
[5]
  ATP release (disruption of the bacterial membrane): no significant effect
[3]
  activity against S. aureus RN4220, P. aeruginosa PAO1 and E. coli ANSI: inactive

## CC(C)[C@@H](CC[C@@H](C)[C@H]1CC[C@H]2[C@@H]3[C@H](O)C[C@H]4C[C@@H](NCCCNCCCCN)CC[C@]4(C)[C@H]3CC[C@]12C)OS(=O)(=O)O [squalamine]
[5]
  ATP release (disruption of the bacterial membrane): dramatic disruption of the bacterial membrane

## polymyxin-B
[6]
  rate of nitrocefin hydrolysis: increase in nitrocefin hydrolysis
